Measured values as given in PubChem BioAssay AID270 (DTP/NCI, 2004).
Several values for one entry are separate records, joined by “and”; a condition that tells them apart may be missing. Equal values may be shown once. Results filed as inconclusive are left out.

System: BDF1 mice, s.c. Lewis lung carcinoma, T/C %
Experiment: NCI In Vivo Anticancer Drug Screen. Data for tumor model Lewis Lung Carcinoma (subcutaneous) in B6D2F1 (BDF1) mice
Method in brief: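 Tumor-bearing mice were treated with test compound, and either survival or tumor size was recorded. Values are the treated-group measurement divided by that of the vehicle-treated control group.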

[1] = endpoint: mean tumor weight, dose: 75.0 mg/kg/injection, schedule: Q01DX011 (ip), vehicle: carboxymethylcellulose (CMC), higher = larger tumour
[2] = endpoint: median survival time, dose: 50.0 mg/kg/injection, schedule: Q01DX009 (ip), vehicle: saline with Tween-80, higher = longer survival
[3] = endpoint: median survival time, dose: 100.0 mg/kg/injection, schedule: Q01DX009 (ip), vehicle: saline with Tween-80, higher = longer survival
[4] = endpoint: median survival time, dose: 200.0 mg/kg/injection, schedule: Q01DX009 (ip), vehicle: saline with Tween-80, higher = longer survival
[5] = endpoint: median survival time, dose: 6.25 mg/kg/injection, schedule: Q01DX009 (ip), vehicle: Klucel (hydroxypropylcellulose) (HPC), higher = longer survival
[6] = endpoint: median survival time, dose: 12.5 mg/kg/injection, schedule: Q01DX009 (ip), vehicle: Klucel (hydroxypropylcellulose) (HPC), higher = longer survival
[7] = endpoint: median survival time, dose: 25.0 mg/kg/injection, schedule: Q01DX009 (ip), vehicle: Klucel (hydroxypropylcellulose) (HPC), higher = longer survival

CN(C)C(=S)N=Nc1c(O)[nH]c2ccccc12
T/C (endpoint: mean tumor weight, dose: 6.6 mg/kg/injection, schedule: Q01DX011 (ip), vehicle: carboxymethylcellulose (CMC), higher = larger tumour): 74 % of control | T/C (endpoint: mean tumor weight, dose: 10.0 mg/kg/injection, schedule: Q01DX011 (ip), vehicle: carboxymethylcellulose (CMC), higher = larger tumour): 89 % of control | T/C (endpoint: mean tumor weight, dose: 15.0 mg/kg/injection, schedule: Q01DX011 (ip), vehicle: carboxymethylcellulose (CMC), higher = larger tumour): 47 % of control and 65 % of control | T/C (endpoint: mean tumor weight, dose: 30.0 mg/kg/injection, schedule: Q01DX011 (ip), vehicle: carboxymethylcellulose (CMC), higher = larger tumour): 50 % of control

O=[N+]([O-])O.[Ga]
T/C (endpoint: median survival time, dose: 8.0 mg/kg/injection, schedule: Q01DX009 (ip), vehicle: saline, higher = longer survival): 118 % of control | T/C (endpoint: median survival time, dose: 16.0 mg/kg/injection, schedule: Q01DX009 (ip), vehicle: saline, higher = longer survival): 158 % of control | T/C (endpoint: median survival time, dose: 32.0 mg/kg/injection, schedule: Q01DX009 (ip), vehicle: saline, higher = longer survival): 99 % of control

O=C1CCCC2C3CC(CN12)C1CCCCN1C3 (stereo not drawn)
T/C (endpoint: mean tumor weight, dose: 22.0 mg/kg/injection, schedule: Q01DX011 (ip), vehicle: carboxymethylcellulose (CMC), higher = larger tumour): 113 % of control | T/C (endpoint: mean tumor weight, dose: 33.0 mg/kg/injection, schedule: Q01DX011 (ip), vehicle: carboxymethylcellulose (CMC), higher = larger tumour): 59 % of control | T/C (endpoint: mean tumor weight, dose: 50.0 mg/kg/injection, schedule: Q01DX011 (ip), vehicle: carboxymethylcellulose (CMC), higher = larger tumour): 78 % of control | T/C [1]: 89 % of control

COC(=O)[C@@]12OC[C@]34[C@H]([C@@H](O)[C@@H]1O)[C@@]1(C)CC(=O)C(O)=C(C)[C@@H]1C[C@H]3OC(=O)[C@H](OC(=O)/C=C(\C)C(C)C)[C@@H]24
T/C (endpoint: median survival time, dose: 0.12 mg/kg/injection, schedule: Q01DX009 (ip), vehicle: other, higher = longer survival): 99 % of control | T/C (endpoint: median survival time, dose: 0.25 mg/kg/injection, schedule: Q01DX009 (ip), vehicle: other, higher = longer survival): 91 % of control | T/C (endpoint: median survival time, dose: 0.5 mg/kg/injection, schedule: Q01DX009 (ip), vehicle: other, higher = longer survival): 92 % of control | T/C (endpoint: median survival time, dose: 1.0 mg/kg/injection, schedule: Q01DX009 (ip), vehicle: other, higher = longer survival): 91 % of control | T/C (endpoint: median survival time, dose: 2.0 mg/kg/injection, schedule: Q01DX009 (ip), vehicle: other, higher = longer survival): 87 % of control

c1cc[c]([Sn]([S][Sn]([c]2ccccc2)([c]2ccccc2)[c]2ccccc2)([c]2ccccc2)[c]2ccccc2)cc1
T/C [2]: 91 % of control | T/C [3]: 93 % of control | T/C [4]: 102 % of control

CC(C)=CCC(OC(=O)C=C(C)C)C1=CC(=O)c2c(O)ccc(O)c2C1=O (stereo not drawn)
T/C [5]: 104 % of control | T/C [6]: 88 % of control | T/C [7]: 118 % of control

N#Cc1ccc(S(N)(=O)=O)cc1
T/C (endpoint: mean tumor weight, dose: 6.2 mg/kg/injection, schedule: Q01DX011 (ip), vehicle: carboxymethylcellulose (CMC), higher = larger tumour): 52 % of control | T/C (endpoint: mean tumor weight, dose: 12.5 mg/kg/injection, schedule: Q01DX011 (ip), vehicle: carboxymethylcellulose (CMC), higher = larger tumour): 66 % of control

CC(C)CCC[C@@H](C)[C@H]1CC[C@H]2[C@@H]3CC=C4C[C@@H](O)CC[C@]4(C)[C@H]3CC[C@]12C
T/C (endpoint: median survival time, dose: 100.0 mg/kg/injection, schedule: Q01DX009 (ip), vehicle: Klucel (hydroxypropylcellulose) (HPC), higher = longer survival): 100 % of control | T/C (endpoint: median survival time, dose: 200.0 mg/kg/injection, schedule: Q01DX009 (ip), vehicle: Klucel (hydroxypropylcellulose) (HPC), higher = longer survival): 90 % of control | T/C (endpoint: median survival time, dose: 400.0 mg/kg/injection, schedule: Q01DX009 (ip), vehicle: Klucel (hydroxypropylcellulose) (HPC), higher = longer survival): 90 % of control | T/C (endpoint: median survival time, dose: 800.0 mg/kg/injection, schedule: Q01DX009 (ip), vehicle: Klucel (hydroxypropylcellulose) (HPC), higher = longer survival): 89 % of control

CC(=O)c1ccc(-c2ccccc2)cc1
T/C (endpoint: mean tumor weight, dose: 125.0 mg/kg/injection, schedule: Q01DX011 (ip), vehicle: other, higher = larger tumour): 57 % of control | T/C (endpoint: mean tumor weight, dose: 222.0 mg/kg/injection, schedule: Q01DX011 (ip), vehicle: other, higher = larger tumour): 174 % of control | T/C (endpoint: mean tumor weight, dose: 250.0 mg/kg/injection, schedule: Q01DX011 (ip), vehicle: other, higher = larger tumour): 73 % of control | T/C (endpoint: mean tumor weight, dose: 333.0 mg/kg/injection, schedule: Q01DX011 (ip), vehicle: other, higher = larger tumour): 118 % of control | T/C (endpoint: mean tumor weight, dose: 500.0 mg/kg/injection, schedule: Q01DX011 (ip), vehicle: other, higher = larger tumour): 86 % of control

Cc1ncc([N+](=O)[O-])n1CCO
T/C (endpoint: median survival time, dose: 37.5 mg/kg/injection, schedule: Q01DX009 (ip), vehicle: Klucel (hydroxypropylcellulose) (HPC), higher = longer survival): 98 % of control | T/C (endpoint: median survival time, dose: 37.5 mg/kg/injection, schedule: Q04DX003 (ip), vehicle: Klucel (hydroxypropylcellulose) (HPC), higher = longer survival): 92 % of control | T/C (endpoint: median survival time, dose: 75.0 mg/kg/injection, schedule: Q01DX009 (ip), vehicle: Klucel (hydroxypropylcellulose) (HPC), higher = longer survival): 106 % of control | T/C (endpoint: median survival time, dose: 75.0 mg/kg/injection, schedule: Q04DX003 (ip), vehicle: Klucel (hydroxypropylcellulose) (HPC), higher = longer survival): 97 % of control | T/C (endpoint: median survival time, dose: 150.0 mg/kg/injection, schedule: Q01DX009 (ip), vehicle: Klucel (hydroxypropylcellulose) (HPC), higher = longer survival): 96 % of control | T/C (endpoint: median survival time, dose: 150.0 mg/kg/injection, schedule: Q04DX003 (ip), vehicle: Klucel (hydroxypropylcellulose) (HPC), higher = longer survival): 96 % of control | T/C (endpoint: median survival time, dose: 300.0 mg/kg/injection, schedule: Q01DX009 (ip), vehicle: Klucel (hydroxypropylcellulose) (HPC), higher = longer survival): 97 % of control | T/C (endpoint: median survival time, dose: 300.0 mg/kg/injection, schedule: Q04DX003 (ip), vehicle: Klucel (hydroxypropylcellulose) (HPC), higher = longer survival): 100 % of control | T/C (endpoint: median survival time, dose: 600.0 mg/kg/injection, schedule: Q01DX009 (ip), vehicle: Klucel (hydroxypropylcellulose) (HPC), higher = longer survival): 105 % of control | T/C (endpoint: median survival time, dose: 600.0 mg/kg/injection, schedule: Q04DX003 (ip), vehicle: Klucel (hydroxypropylcellulose) (HPC), higher = longer survival): 91 % of control

C=C1C(=O)O[C@@H]2/C=C(/C)[C@@]3(O)C=C[C@](C)(C[C@@H](OC(=O)/C(=C\C)COC(C)=O)[C@@H]12)O3
T/C (endpoint: median survival time, dose: 0.03 mg/kg/injection, schedule: Q01DX009 (ip), vehicle: carboxymethylcellulose (CMC), higher = longer survival): 100 % of control | T/C (endpoint: median survival time, dose: 0.06 mg/kg/injection, schedule: Q01DX009 (ip), vehicle: carboxymethylcellulose (CMC), higher = longer survival): 94 % of control | T/C (endpoint: median survival time, dose: 0.12 mg/kg/injection, schedule: Q01DX009 (ip), vehicle: carboxymethylcellulose (CMC), higher = longer survival): 113 % of control | T/C (endpoint: median survival time, dose: 0.25 mg/kg/injection, schedule: Q01DX009 (ip), vehicle: carboxymethylcellulose (CMC), higher = longer survival): 87 % of control | T/C (endpoint: median survival time, dose: 0.5 mg/kg/injection, schedule: Q01DX009 (ip), vehicle: carboxymethylcellulose (CMC), higher = longer survival): 100 % of control

COc1ccc(-c2ccc(OC)c(OC)c2OC)c(N)c1
T/C (endpoint: mean tumor weight, dose: 375.0 mg/kg/injection, schedule: Q01DX011 (ip), vehicle: carboxymethylcellulose (CMC), higher = larger tumour): 58 % of control | T/C (endpoint: mean tumor weight, dose: 500.0 mg/kg/injection, schedule: Q01DX011 (ip), vehicle: carboxymethylcellulose (CMC), higher = larger tumour): 89 % of control | T/C (endpoint: mean tumor weight, dose: 625.0 mg/kg/injection, schedule: Q01DX011 (ip), vehicle: carboxymethylcellulose (CMC), higher = larger tumour): 74 % of control | T/C (endpoint: mean tumor weight, dose: 750.0 mg/kg/injection, schedule: Q01DX011 (ip), vehicle: carboxymethylcellulose (CMC), higher = larger tumour): 56 % of control | T/C (endpoint: median survival time, dose: 25.0 mg/kg/injection, schedule: Q01DX009 (ip), vehicle: saline with Tween-80, higher = longer survival): 101 % of control | T/C [2]: 107 % of control | T/C [3]: 108 % of control | T/C [4]: 106 % of control

CCC(c1ccc(OC(=O)Cc2ccc(N(CCCl)CCCl)cc2)cc1)C(CC)c1ccc(OC(=O)Cc2ccc(N(CCCl)CCCl)cc2)cc1 (stereo not drawn)
T/C [5]: 102 % of control | T/C [6]: 104 % of control | T/C [7]: 104 % of control | T/C (endpoint: median survival time, dose: 25.0 mg/kg/injection, schedule: Q02DX009 (ip), vehicle: saline with Tween-80, higher = longer survival): 86 % of control | T/C (endpoint: median survival time, dose: 50.0 mg/kg/injection, schedule: Q02DX009 (ip), vehicle: saline with Tween-80, higher = longer survival): 88 % of control | T/C (endpoint: median survival time, dose: 100.0 mg/kg/injection, schedule: Q02DX009 (ip), vehicle: saline with Tween-80, higher = longer survival): 94 % of control

CC1C/C=C2\CSC(NC(=O)/C3=C\N(C/C=C/C=C/C(O)CC(O)CC(=O)N3)C2=O)C(=O)O1 (stereo not drawn)
T/C (endpoint: mean tumor weight, dose: 10.6 mg/kg/injection, schedule: Q01DX011 (ip), vehicle: carboxymethylcellulose (CMC), higher = larger tumour): 88 % of control | T/C (endpoint: mean tumor weight, dose: 16.0 mg/kg/injection, schedule: Q01DX011 (ip), vehicle: carboxymethylcellulose (CMC), higher = larger tumour): 169 % of control | T/C (endpoint: mean tumor weight, dose: 24.0 mg/kg/injection, schedule: Q01DX011 (ip), vehicle: carboxymethylcellulose (CMC), higher = larger tumour): 68 % of control | T/C (endpoint: mean tumor weight, dose: 36.0 mg/kg/injection, schedule: Q01DX011 (ip), vehicle: carboxymethylcellulose (CMC), higher = larger tumour): 114 % of control

CC(C)c1ccc(O)c(=O)cc1
T/C (endpoint: mean tumor weight, dose: 37.5 mg/kg/injection, schedule: Q01DX011 (ip), vehicle: carboxymethylcellulose (CMC), higher = larger tumour): 52 % of control | T/C [1]: 62 % of control

CN(C)CCCNc1c2ccccc2nc2cccc([N+](=O)[O-])c12
T/C (endpoint: median survival time, dose: 2.0 micrograms/kg/injection, schedule: Q01DX009 (ip), vehicle: saline, higher = longer survival): 98 % of control and 118 % of control | T/C (endpoint: median survival time, dose: 8.0 micrograms/kg/injection, schedule: Q01DX009 (ip), vehicle: saline, higher = longer survival): 89 % of control | T/C (endpoint: median survival time, dose: 16.0 micrograms/kg/injection, schedule: Q01DX009 (ip), vehicle: saline, higher = longer survival): 109 % of control | T/C (endpoint: median survival time, dose: 32.0 micrograms/kg/injection, schedule: Q01DX009 (ip), vehicle: saline, higher = longer survival): 95 % of control | T/C (endpoint: median survival time, dose: 125.0 micrograms/kg/injection, schedule: Q01DX009 (ip), vehicle: saline, higher = longer survival): 93 % of control
